In patent publication US5486528A, “Basic ethers and process for the preparation thereof” (Egis Gyogyszergyar Rt., priority 1993, dated 1996):
Where two headings read alike, the source gives them in different places.

What was measured:
Male Wistar rats [1] = test: Vogel test (drinking conflict test), anxiolytic effect; assay type: in vivo, rat (Wistar); settings: ip, 0.5 h; rat, intraperitoneally, half an hour before testing; read-out: MED (minimum effective dose), Vogel test
Description: 1.1. Vogel test (drinking conflict test)
The anxiolytic effect was tested by using the method of Vogel et al. Male Wistar rats of 160 to 180 g body weight were kept free of food and drinking water for 24 and 48 hours, respectively. Test and carrier substances were administered intraperitoneally half an hour before testing. Animals within the experimental chamber were provided with drinking water through an inserted tube. After the animals' each twenty lapping for water the device emitted a 2 mA intensity electric shock through the drinking tube. During 5 minutes the shocks tolerated by the animals in order to quench their thirst were counted. The effect of treatment was expressed as the % increase of the tolerated shocks. The minimum effective dose (MED) was determined for each test compound [Volge, J. R., Beer, B., Clody, D. E.: Psychopharmacologia (Berl.) 21, 1 (1971)].

mice = test: Effect on the spontaneous motor activity (Borsy), sedative effect; assay type: in vivo, mouse; settings: for ED50: Mus musculus, po, 0.5 h, read-out: ID50, spontaneous motor activity
Description: 2.1. Effect on the spontaneous motor activity
The test was carried out according to the method of Borsy et al. Groups consisting of 3 mice each were treated orally with different doses of the compounds to be tested. Then the test animals were placed into a 10-channel Dews system equipment. In this equipment the number of interruptions of infrared beam within 30 minutes was counted. […] Int. Pharmacodyn. 124, 1 (1960)].

Male Wistar rats [2] = test: Conditioned avoidance response inhibition, antipsychotic effect; assay type: in vivo, rat (Wistar); settings: rat, 30 mg/kg p.o.; ++ = p < 0.05
Description: Conditioned avoidance response inhibition
The antipsychotic (neuroleptic) effect was measured by the inhibition of the learned conditioned avoidance reflex. The male Wistar rats, used for the study, were of 120-150 g body weight at the commencement of learning. A shuttle box was used as experimental device; it consists of two parts, 24×24.5×23 cm each, separated by a wall with a 6×9 cm gate. In response to a sutiable warning stimulus, in order to avoid the punishing (unconditioned) stimulus, animals within the box passed through the gate from one part to the other. The warning, i.e. conditioned stimulus (CS), a white light (1 Hz) blinking for 15 seconds, was applied at the place of the actual animal existence. The unconditioned stimulus (US), in form of 0.6 mA intensity electric shock, was randomly applied to the paw during the last 5 seconds of the conditioned stimulus. The animal's movement during the CS and US from one part of the box to the other, was defined as avoidance and escape responses, respectively. Both responses ceased the actual stimulus and stopped the trial. The time elapsed until the next trial (intertrial interval, ITI) was 15 seconds. While one experiment was carried out daily, an experiment consisted of 80 trials. Learning efficiency was expressed as percentage of the successful to the total avoidances. Effect of the neuroleptic drugs was examined in animals with stabilized conditioned reflexes and with at least 75% learning efficiency. Dosing was carried out once a week, one hour before the measurement in the shuttle box. To calculate the neuroleptic effect (50% inhibiting dose, ID50) , results obtained after the treatment were compared to those obtained on the previous day (controls).

[3] = Acute toxicity on mice (Litchfield and Wilcoxon); settings: mouse, in vivo, po
Description: The test was carried out according to the method of Litchfield and Wilcoxon [Litchfield, J. T. and Wilcoxon, F. W.: J. Pharmacol. Exp. Ther., 96, 99 (1949)] by using white mice belonging to the CFLP strain and weighing 10 to 22 g, 10 animals per dose. The test compounds were administered orally in a volume of 20 cm^3 /kg.

[4] = Acute toxicity on mice (Litchfield and Wilcoxon); settings: mouse, in vivo, ip
gastric-acid secretion = test: Gastric-acid-secretion test (Shay); assay type: in vivo, rat; settings: po, read-out: Acid-secretion inhibition, ED50
Description: 2. […] The liberated gastric-acid content was determined by titration 4 hours after the ligature of the duodenum.

[5] = test system: erosion of the stomach wall; test: Cytoprotective effect, ethanol erosion (Robert); assay type: in vivo; settings: rat; for ED50: po; for Ratio of acid-secretion inhibition and erosion inhibition: ratio of ED50 values
Description: 3. The cytoprotective effect was determined according to the method of Robert [Robert, A.: Cytoprotection by prostaglandins. […] Rats weighing 200 to 250 g were used as test animals. 1 cm^3 of abs. ethanol was introduced to the stomach to produce an erosion of the stomach wall. The length and frequency of the lesions (erosion index and frequency) were measured and the percentage inhibition of lesion formation compared with vehicle-treated animals was calculated.

[6] = rat, p.o., 4 hours after ligature

| Compound | minimal effective dose (Male Wistar rats [1]) [mg/kg] | Inhibition of the conditioned reflex (%) (Male Wistar rats [2]) | ED50 (mice; mice, orally, 30 minutes) [mg/kg] | also measured |
| --- | --- | --- | --- | --- |
| CCC(/C=C/c1ccccc1)=N\OCC(C)CN(C)C (racemic) [Example 18, (R,S)-1-Phenyl-3-(E)-[3-(dimethylamino)-2-methylpropoxyimino]-1-(E)-pentene] | 1 | 12 | – | inhibition of spontaneous motor activity at 100 mg/kg (mice; mice, orally, 100 mg/kg): 54% |
| CCC(/C=C/c1ccc(Cl)cc1)=N\OCC(C)CN(C)C (racemic) [Example 19, (R,S)-1-(4-Chlorophenyl)-3-(E)-[3-(dimethylamino)-2-methylpropoxyimino]-1-(E)-pentene] | 10 | 19 | > 100 | – |
| CC(C)CCC(/C=C/c1ccc(Cl)cc1)=N\OCC(O)CNC1CCCCC1 (racemic) [Example 36, (R,S)-1-(4-Chlorophenyl)-6-methyl-3-(E)-[3-(cyclohexylamino)-2-hydroxypropoxyimino]-1-(E)-heptene] | – | – | – | LD50 at 336 h ([3]; mice, 14 days observation): > 1000 mg/kg; LD50 at 336 h ([4]; mice, 14 days observation): 30 to 100 mg/kg |
| CNC1=Nc2ccc(Cl)cc2C(c2ccccc2)=[N+]([O-])C1 [Chlorodiazepoxide, reference compound] | – | – | 56 | – |
| CN/C(=N/CCSCc1nc[nH]c1C)NC#N [Cimetidine, reference compound] | – | – | – | ED50 (gastric-acid secretion; Rattus norvegicus, 4 h): 59.1 mg/kg; ED50 ([5]; 1 cm^3 abs. ethanol): 100 to 200 mg/kg; Ratio of acid-secretion inhibition and erosion inhibition ([5]; p.o.): 0.3-0.6 |
| CN1C(=O)CN=C(c2ccccc2)c2cc(Cl)ccc21 [Diazepam, reference compound] | – | – | – | ED50 (mice): 23 mg/kg |
| CCCC(/C=C/c1ccccc1)=N\OCCN(CC)CC [Example 1, 1-Phenyl-3-(E)-[2-(diethylamino)-ethoxyimino]-1-(E)-hexene] | 30 | 10 | > 100 | – |
| CC(C)CCC(/C=C/c1ccccc1)=N\OCCCN(C)C [Example 5, 1-Phenyl-6-methyl-3-(E)-[3-(dimethylamino)-propoxyimino]-1-(E)-heptene] | > 30 | 16 | > 100 | – |
| CCC(/C=C/c1ccc(Cl)cc1)=N\OCCN(C)C [Example 7, 1-(4-Chlorophenyl)-3-(E)-[2-(dimethylamino)-ethoxyimino]-1-(E)-pentene] | 3 | 22 | > 100 | – |
| CC(C)CCC(/C=C/c1ccc(Cl)cc1)=N\OCCCN(C)C [Example 13, 1-(4-Chlorophenyl)-6-methyl-3-(E)-[3-(dimethylamino)-propoxyimino]-1-(E)-heptene] | > 30 | 12 | > 100 | – |
| CCC(/C=C/c1ccccc1)=N\OCCN(C)C [Example 14, 1-Phenyl-3-(E)-[2-(dimethylamino)-ethoxyimino]-1-(E)-pentene] | 10 | 18 | > 100 | – |
| CC(C)CCC(/C=C/c1ccc(Cl)cc1)=N\OCCN(C)C [Example 15] | 3 | 11 | > 100 | – |
| CC(C)CCC(/C=C/c1ccc(Cl)cc1)=N\OCCCN1CCCCCC1 [Example 35, 1-(Chlorophenyl)-6-methyl-3-(E)-[3-(hexahydro-1-H-azepinyl)-propoxyimino]-1-(E)-heptene] | – | – | – | LD50 at 336 h [3]: > 1000 mg/kg; LD50 at 336 h [4]: 30 to 100 mg/kg |
| COc1ccc2[nH]c([S+]([O-])Cc3ncc(C)c(OC)c3C)nc2c1 (stereo not shown) [Omeprazole, reference compound] | – | – | – | ED50 (gastric-acid secretion; [6]): 3.9 mg/kg; ED50 ([5]; 1 cm^3 abs. ethanol): 4.5 mg/kg; Ratio of acid-secretion inhibition and erosion inhibition ([5]; p.o.): 0.9 |
| CN1CCN(CC(=O)N2c3ccccc3C(=O)Nc3cccnc32)CC1 [Pirenzepine, reference compound] | – | – | – | ED50 (gastric-acid secretion; [6]): 7.9 mg/kg; ED50 ([5]; 1 cm^3 abs. ethanol): 18.6 mg/kg; Ratio of acid-secretion inhibition and erosion inhibition ([5]; p.o.): 0.4 |
| Sucralfate [reference compound] | – | – | – | Ethanol erosion ED50 ([5]; p.o., 1 cm^3 abs. ethanol): 69.0 |
